Assay results published in patent US9895329B1, “Formyl peptide receptor 1 antagonists and uses thereof” (Chang Gung University, priority 2016, dated 2018).

Tests used:
FPR1 = molecular target: T1, FPR1 (Homo sapiens, UniProt P21462); assay: FPR1 binding assay (FNLFNYK, flow cytometry); details: neutrophils, FNLFNYK 4 nM, 4° C.; read-out: IC50, suppression of binding of FPR1-specific ligand FNLFNYK
T1 construct: endogenous in cells; host or cells: neutrophils
T1 sequence (P21462 1-350): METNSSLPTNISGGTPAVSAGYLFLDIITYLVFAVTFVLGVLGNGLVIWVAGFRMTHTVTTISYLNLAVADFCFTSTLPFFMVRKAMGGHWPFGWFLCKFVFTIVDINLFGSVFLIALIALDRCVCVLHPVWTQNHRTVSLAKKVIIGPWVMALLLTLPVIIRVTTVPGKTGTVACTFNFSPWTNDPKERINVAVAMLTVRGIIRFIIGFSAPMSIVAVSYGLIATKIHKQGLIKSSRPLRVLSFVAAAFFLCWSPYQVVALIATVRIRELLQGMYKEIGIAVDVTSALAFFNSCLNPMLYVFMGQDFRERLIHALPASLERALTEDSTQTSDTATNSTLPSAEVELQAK
Protocol: Neutrophils (2×10^6 cells/ml) were incubated with various concentrations of compound LS-PH (0.03 to 3 μM) or fMLF (10 μM) at 4° C. for 5 min, and labeled with FPR1-specific ligand […] (4 nM) for 30 min. Then, the binding was determined by use of flow cytometry.

human neutrophils [1] = assay: Elastase release from fMLF-activated human neutrophils; type: cell-based; details: Neutrophil; fMLF (0.1 μM)/CB-activated human neutrophils; read-out: IC50, suppression of elastase release
Protocol: (§1) Human neutrophils were obtained in lipopolysaccharide-free conditions by means of dextran sedimentation and Ficoll centrifugation.
MeO-Suc-Ala-Ala-Pro-Val-p-nitroanilide was employed as the elastase substrate for the determination of elastase release. Briefly, after supplementation with Methoxysuccinyl-Ala-Ala-Pro-Val-p-nitroanilide (Ms-Ala-Ala-Pro-Val-pNA) (100 μM), neutrophils (6×10^5/mL) were equilibrated at 37° C. for 2 min and incubated with LS-PH at various concentrations for 5 min. Cells were activated with fMLF (0.1 μM) for 10 min in the pre-process of cytochalasin B (CB, 0.5 μg/mL) for 3 min, and changes in absorbance at 405 nm were continuously monitored to evaluate elastase release. Results are expressed as the percentage of elastase release in the drug-free control group, DMSO.

human neutrophils [2] = assay: O2•− (superoxide) production in fMLF-activated human neutrophils; type: cell-based; details: Neutrophil; fMLF (0.1 μM)/CB-activated human neutrophils; read-out: IC50, suppression of superoxide production
Protocol: as §1
O2^•− production was determined based on the SOD-inhibitable reduction of ferricytochrome c. Briefly, neutrophils (6×10^5/mL) were treated with LS-PH at 37° C. at various concentrations (0.03 to 3 μM) for 5 min after being supplementing with 0.5 mg/mL ferricytochrome c and 1 mM Ca^2+. Cells were activated with formyl-L-methionyl-L-leucyl-L-phenylalanine (fMLF, 0.1 μM) for 10 min in the pre-process of cytochalasin B (CB, 1 μg/mL) for 3 min. Changes in absorbance with the reduction of ferricytochrome c at 550 nm were continuously monitored in a double-beam, six-cell positioner spectrophotometer with constant stirring (Hitachi U-3010, Tokyo, Japan). Calculations were based on the differences in the reactions with and without SOD (100 U ml^−1) divided by the extinction coefficient for the reduction of ferricytochrome c (ε=21.1 mM^−1/10 mm).

human neutrophils [3] = assay: Intracellular ROS formation in fMLF-activated human neutrophils; type: cell-based
Protocol: as §1
After supplementation with dihydrorhodamine 123 (2 μM), neutrophils (1×10^6/mL) were equilibrated at 37° C. for 12 min and incubated with LS-PH at various concentrations for 5 min. Cells were activated with fMLF (0.1 μM) for 5 min in the pre-process of cytochalasin B (CB, 0.5 μg/mL) for 3 min. Intracellular ROS was determined by use of flow cytometer.

human neutrophils [4] = type: cell-based; details: 0.03 to 3 μM
Protocol: Cytotoxicity of LS-PH towards neutrophils was evaluated by measuring the level of lactate dehydrogenase (LDH) using a commercial kit (Promega). LDH is a cytosolic enzyme that is released only when cell membrane is disrupted (i.e., cell death), thus may be used as an indicator of cell viability. The kit measures a color change at (λmax=450 nm) when LDH reduces NAD to NADH. Cytotoxicity was expressed as the percent LDH activity obtained in cell-free medium compared to the total LDH activity. Total LDH activity was determined by lysing cells with 0.1% Triton X-100 for 30 min at 37° C.

For C=C(C)C1CCC2(C(=O)O)CC[C@]3(C)[C@H](CC[C@@H]4[C@@](C)(CCC(=O)O)[C@H](C(=C)C)CC[C@]43C)C12 (some centres unmarked) [LS-PH, (E) 3,4-Seco-4(23), 20(29)-lupadiene-3,28-dioic acid], which IC50 (FPR1) is on record?
Its IC50 is roughly 1720 nM.

And the IC50 (human neutrophils [1])?
Its IC50 is roughly 710 nM.

And the IC50 (human neutrophils [2])?
Its IC50 is roughly 260 nM.

And the “suppression of fMLF-induced intracellular ROS formation” value (human neutrophils [3])?
Its value is “suppress fMLF-induced intracellular ROS formation”.

And the “cytotoxicity (LDH release)” value (human neutrophils [4])?
Its value is “did not exhibit detectable cytotoxicity”.
